Reference: the NIST ThermoML archive (doi:10.1016/j.tca.2015.01.022)

Test: molar heat capacity at constant pressure
Conditions: 101.33 kPa, Small (less than 1 g) adiabatic calorimetry

CCCCCCCC[n+]1ccn(C)c1.F[B-](F)(F)F [1-methyl-3-octylimidazolium tetrafluoroborate]
Conditions | molar heat capacity at constant pressure [J/K/mol]
148.21 K, Glass | 270.7
149.81 K, Crystal | 251.1
150 K, Crystal | 251.3
150 K, Glass | 273.5
150.08 K, Crystal | 251.3
150.11 K, Glass | 273.6
151.75 K, Crystal | 253.4
152 K, Glass | 276.6
152.02 K, Crystal | 253.6
153.69 K, Crystal | 255.7
153.91 K, Glass | 279.6
153.96 K, Crystal | 255.9
155.63 K, Crystal | 258
155.81 K, Glass | 282.6
155.9 K, Crystal | 258.3
157.57 K, Crystal | 260.3
157.72 K, Glass | 285.4
157.84 K, Crystal | 260.6
159.5 K, Crystal | 262.7
159.62 K, Glass | 288.5
159.77 K, Crystal | 263
160 K, Crystal | 263.2
160 K, Glass | 289.3
161.44 K, Crystal | 265.2
161.53 K, Glass | 291.6
161.71 K, Crystal | 265.3
162.37 K, Glass | 293
163.37 K, Crystal | 267.5
163.44 K, Glass | 294.7
163.64 K, Crystal | 267.7
164.32 K, Glass | 296.1
165.31 K, Crystal | 270
165.35 K, Glass | 297.8
165.57 K, Crystal | 270.2
166.17 K, Glass | 299.2
167.24 K, Crystal | 272.5
167.26 K, Glass | 301.2
167.5 K, Crystal | 272.7
168.01 K, Glass | 302.3
169.16 K, Crystal | 275
169.17 K, Glass | 304.3
169.43 K, Crystal | 275.2
169.85 K, Glass | 305.4
170 K, Crystal | 276
170 K, Glass | 305.6
171.09 K, Crystal | 277.5
171.09 K, Glass | 307.7
171.36 K, Crystal | 277.7
171.68 K, Glass | 308.8
173 K, Glass | 311.1
173.01 K, Crystal | 280.1
173.28 K, Crystal | 280.3
173.52 K, Glass | 311.9
174.93 K, Crystal | 282.6
174.93 K, Glass | 314.5
175.2 K, Crystal | 282.9
175.35 K, Glass | 315.3
176.85 K, Crystal | 285.4
176.85 K, Glass | 318.4
177.12 K, Crystal | 285.7
177.17 K, Glass | 319.3
178.76 K, Crystal | 288.3
178.77 K, Glass | 322.6
179 K, Glass | 322.9
179.03 K, Crystal | 288.3
180 K, Crystal | 290
180 K, Glass | 325.4
180.67 K, Crystal | 291.1
180.7 K, Glass | 327.1
180.82 K, Glass | 327.4
180.94 K, Crystal | 291.4
182.58 K, Crystal | 293.9
182.63 K, Glass | 332.5
182.85 K, Crystal | 294.2
184.43 K, Glass | 338.1
184.48 K, Crystal | 296.7
184.56 K, Glass | 339
184.75 K, Crystal | 297
186.22 K, Glass | 345.5
186.38 K, Crystal | 299.8
186.48 K, Glass | 348
186.65 K, Crystal | 299.8
187.99 K, Glass | 355.9
188.27 K, Crystal | 302.6
188.39 K, Glass | 361.5
188.55 K, Crystal | 302.6
189.72 K, Glass | 373.1
190 K, Crystal | 305
190 K, Glass | 380.4
190.16 K, Crystal | 305.4
190.27 K, Liquid | 387.4
190.44 K, Crystal | 305.4
191.35 K, Liquid | 408.9
192.04 K, Crystal | 308.3
192.05 K, Liquid | 444.4
192.32 K, Crystal | 308.5
192.85 K, Liquid | 463.5
193.84 K, Liquid | 466.1
193.92 K, Crystal | 311.4
194.2 K, Crystal | 311.6
194.36 K, Liquid | 466.3
195.76 K, Liquid | 466.6
195.8 K, Crystal | 314.5
196.08 K, Crystal | 314.7
197.67 K, Crystal | 317.3
197.7 K, Liquid | 465.8
197.95 K, Crystal | 317.8
199.54 K, Crystal | 320.7
199.64 K, Liquid | 464.9
199.82 K, Crystal | 320.9
200 K, Crystal | 320
200 K, Liquid | 464.9
201.46 K, Crystal | 323.8
201.58 K, Liquid | 464.7
201.81 K, Crystal | 324.6
203.44 K, Crystal | 327.4
203.53 K, Liquid | 464.1
203.91 K, Crystal | 328.6
205.42 K, Crystal | 331.1
205.47 K, Liquid | 463.8
206.02 K, Crystal | 332.2
207.4 K, Crystal | 334.5
207.42 K, Liquid | 463.5
208.11 K, Crystal | 335.9
209.36 K, Liquid | 463.5
209.37 K, Crystal | 338.1
210 K, Crystal | 335
210 K, Liquid | 463.4
210.2 K, Crystal | 339.8
211.3 K, Liquid | 463.2
211.34 K, Crystal | 342.1
212.28 K, Crystal | 344.3
213.25 K, Liquid | 463.5
213.29 K, Crystal | 346
214.36 K, Crystal | 348
215.19 K, Liquid | 463.2
215.24 K, Crystal | 350
216.42 K, Crystal | 352.2
217.13 K, Liquid | 463.5
217.18 K, Crystal | 355
218.47 K, Crystal | 357.6
219.08 K, Liquid | 463.8
219.11 K, Crystal | 360.4
220 K, Crystal | 349.9
220 K, Liquid | 463.8
220.51 K, Crystal | 362.9
221.02 K, Crystal | 365.7
221.02 K, Liquid | 463.8
222.53 K, Crystal | 369.1
222.93 K, Crystal | 371.1
222.96 K, Liquid | 464.1
224.55 K, Crystal | 375
224.82 K, Crystal | 376.7
224.9 K, Liquid | 464.7
226.56 K, Crystal | 381
226.7 K, Crystal | 382.4
226.85 K, Liquid | 464.9
228.55 K, Crystal | 387.4
228.58 K, Crystal | 388.3
228.8 K, Liquid | 465.8
230 K, Crystal | 364.9
230 K, Liquid | 465.8
230.44 K, Crystal | 395.1
230.53 K, Crystal | 394.5
230.75 K, Liquid | 466.6
232.29 K, Crystal | 402.4
232.49 K, Crystal | 402.1
234.12 K, Crystal | 411.7
234.44 K, Crystal | 412
235.93 K, Crystal | 423.8
236.36 K, Crystal | 424.6
237.7 K, Crystal | 441.5
238.24 K, Crystal | 445.5
239.43 K, Crystal | 472
240 K, Crystal | 379.9
240 K, Liquid | 468.9
240.06 K, Crystal | 487.8
245.81 K, Crystal | 388.6
245.81 K, Liquid | 471
248.34 K, Liquid | 472
249.07 K, Liquid | 472.3
250 K, Liquid | 472.6
250.32 K, Liquid | 472.8
251 K, Liquid | 473.1
252.27 K, Liquid | 473.7
252.93 K, Liquid | 473.9
254.22 K, Liquid | 474.5
254.87 K, Liquid | 474.8
256.17 K, Liquid | 475.4
256.8 K, Liquid | 475.6
258.12 K, Liquid | 476.2
258.74 K, Liquid | 476.5
260 K, Liquid | 477.3
260.07 K, Liquid | 477.3
260.67 K, Liquid | 477.6
262.02 K, Liquid | 478.2
262.61 K, Liquid | 478.5
263.97 K, Liquid | 479.3
264.54 K, Liquid | 479.6
265.92 K, Liquid | 480.1
266.48 K, Liquid | 480.4
267.87 K, Liquid | 481.3
268.42 K, Liquid | 481.6
269.82 K, Liquid | 482.1
270 K, Liquid | 482.4
270.35 K, Liquid | 482.4
271.77 K, Liquid | 483.2
272.29 K, Liquid | 483.5
273.73 K, Liquid | 484.4
274.23 K, Liquid | 484.7
275.68 K, Liquid | 485.2
276.16 K, Liquid | 485.5
277.63 K, Liquid | 486.6
278.1 K, Liquid | 486.6
279.58 K, Liquid | 487.8
280 K, Liquid | 487.7
281.53 K, Liquid | 488.9
283.48 K, Liquid | 489.7
285.44 K, Liquid | 490.9
287.39 K, Liquid | 492
289.34 K, Liquid | 493.1
290 K, Liquid | 493.2
291.29 K, Liquid | 494.2
293.24 K, Liquid | 495.4
295.19 K, Liquid | 496.5
297.15 K, Liquid | 497.3
298.15 K, Liquid | 497.8
299.1 K, Liquid | 498.5
300 K, Liquid | 498.9
301.05 K, Liquid | 499.6
303 K, Liquid | 500.7
304.95 K, Liquid | 502.1
306.9 K, Liquid | 503
308.86 K, Liquid | 504.4
310 K, Liquid | 504.8
310.81 K, Liquid | 505.2
312.76 K, Liquid | 506.4
314.71 K, Liquid | 507.5
316.67 K, Liquid | 508.9
318.62 K, Liquid | 510
320 K, Liquid | 510.9
320.57 K, Liquid | 511.1
322.53 K, Liquid | 512.3
324.48 K, Liquid | 513.4
326.44 K, Liquid | 514.8
328.39 K, Liquid | 515.9
330 K, Liquid | 517.1
330.34 K, Liquid | 517.1
332.3 K, Liquid | 518.5
334.25 K, Liquid | 519.9
336.21 K, Liquid | 521
338.16 K, Liquid | 522.4
340 K, Liquid | 523.6
340.11 K, Liquid | 523.8
342.07 K, Liquid | 524.7
344.02 K, Liquid | 526.4
345.98 K, Liquid | 527.2
347.93 K, Liquid | 528.9
349.89 K, Liquid | 530.3
350 K, Liquid | 530.3
351.85 K, Liquid | 531.7
353.8 K, Liquid | 533.1
355.76 K, Liquid | 534.2
357.71 K, Liquid | 535.7
359.66 K, Liquid | 536.8
360 K, Liquid | 537.1
361.61 K, Liquid | 538.2
363.57 K, Liquid | 539.3
365.52 K, Liquid | 540.7
367.47 K, Liquid | 542.4
370 K, Liquid | 544.2
